# In ChEMBL document CHEMBL3797052 (Eur J Med Chem, 2016):
# Legend:
# [1] = tested on: MDA-MB-435; test: Antiproliferative activity against human MDA-MB-435 cells assessed as cell growth at 10^-4 M after 48 hrs by sulforhodamine B assay; assay type: functional; conditions: MDA-MB-435, 48 h, read-out: Activity
# [2] = Antiproliferative activity against human OVCAR3 cells assessed as cell growth at 10^-4 M after 48 hrs by sulforhodamine B assay; assay type: functional; conditions: OVCAR-3, 48 h, read-out: Activity
# [3] = tested on: HT-29; test: Antiproliferative activity against human HT-29 cells assessed as cell growth at 10^-6 M after 48 hrs by sulforhodamine B assay; assay type: functional; conditions: HT-29, 48 h, read-out: Activity
# [4] = tested on: NCI-H322M; test: Antiproliferative activity against human NCI-H322M cells assessed as cell growth at 10^-7 M after 48 hrs by sulforhodamine B assay; assay type: functional; conditions: read-out: Activity
# [5] = Antiproliferative activity against human TK10 cells assessed as cell growth at 10^-6 M after 48 hrs by sulforhodamine B assay; assay type: functional; conditions: TK-10, 48 h, read-out: Activity
# [6] = tested on: CCRF-CEM; test: Antiproliferative activity against human CCRF-CEM cells assessed as cell growth at 10^-8 M after 48 hrs by sulforhodamine B assay; assay type: functional; conditions: read-out: Activity
# [7] = tested on: MDA-MB-468; test: Antiproliferative activity against human MDA-MB-468 cells assessed as cell growth at 10^-4 M after 48 hrs by sulforhodamine B assay; assay type: functional; conditions: MDA-MB-468, 48 h, read-out: Activity
# [8] = Antiproliferative activity against human NCI-ADR-RES cells assessed as cell growth at 10^-6 M after 48 hrs by sulforhodamine B assay; assay type: functional; conditions: read-out: Activity
# [9] = tested on: MDA-MB-231; test: Antiproliferative activity against human MDA-MB-231 cells assessed as cell growth at 10^-4 M after 48 hrs by sulforhodamine B assay; assay type: functional; conditions: MDA-MB-231, 48 h, read-out: Activity
# [10] = Antiproliferative activity against human HOP62 cells assessed as cell growth at 10^-6 M after 48 hrs by sulforhodamine B assay; assay type: functional; conditions: HOP-62, 48 h, read-out: Activity
# [11] = Antiproliferative activity against human SNB19 cells assessed as cell growth at 10^-4 M after 48 hrs by sulforhodamine B assay; assay type: functional; conditions: SNB-19, 48 h, read-out: Activity
# [12] = tested on: CCRF-CEM; test: Antiproliferative activity against human CCRF-CEM cells assessed as cell growth at 10^-6 M after 48 hrs by sulforhodamine B assay; assay type: functional; conditions: read-out: Activity
# [13] = Antiproliferative activity against human LOXIMVI cells assessed as cell growth at 10^-7 M after 48 hrs by sulforhodamine B assay; assay type: functional; conditions: LOX IMVI, read-out: Activity
# [14] = Antiproliferative activity against human DU145 cells assessed as cell growth at 10^-4 M after 48 hrs by sulforhodamine B assay; assay type: functional; conditions: DU-145, 48 h, read-out: Activity
# [15] = tested on: KM12; test: Antiproliferative activity against human KM12 cells assessed as cell growth at 10^-4 M after 48 hrs by sulforhodamine B assay; assay type: functional; conditions: KM12, 48 h, read-out: Activity
# [16] = tested on: NCI-H226; test: Antiproliferative activity against human NCI-H226 cells assessed as cell growth at 10^-6 M after 48 hrs by sulforhodamine B assay; assay type: functional; conditions: NCI-H226, 48 h, read-out: Activity
# [17] = Antiproliferative activity against human HCC2998 cells assessed as cell growth at 10^-7 M after 48 hrs by sulforhodamine B assay; assay type: functional; conditions: HCC 2998, 48 h, read-out: Activity
# [18] = tested on: 786-0; test: Antiproliferative activity against human 786-0 cells assessed as growth inhibition after 48 hrs by sulforhodamine B assay; assay type: functional; conditions: 786-0, 48 h
# [19] = Antiproliferative activity against human Hs 578T cells assessed as cell growth at 10^-6 M after 48 hrs by sulforhodamine B assay; assay type: functional; conditions: read-out: Activity
# [20] = tested on: MCF7; test: Antiproliferative activity against human MCF7 cells assessed as cell growth at 10^-6 M after 48 hrs by sulforhodamine B assay; assay type: functional; conditions: MCF7, 48 h, read-out: Activity
# [21] = Antiproliferative activity against human OVCAR5 cells assessed as growth inhibition after 48 hrs by sulforhodamine B assay; assay type: functional; conditions: OVCAR-5, 48 h; for CC50: read-out: LC50 (the source's name)
# [22] = molecular target: CYP2D6 (Homo sapiens, UniProt P10635); test: Inhibition of recombinant human CYP2D6 assessed as remaining enzyme activity using CYP2D6 blue as substrate at 10 uM after 5 mins in presence of NADP by fluorescence plate reader analysis; assay type: ADME; conditions: recombinant human CYP2D6, probe CYP2D6 blue, read-out: Activity
# Sequence of CYP2D6 (P10635 whole entry): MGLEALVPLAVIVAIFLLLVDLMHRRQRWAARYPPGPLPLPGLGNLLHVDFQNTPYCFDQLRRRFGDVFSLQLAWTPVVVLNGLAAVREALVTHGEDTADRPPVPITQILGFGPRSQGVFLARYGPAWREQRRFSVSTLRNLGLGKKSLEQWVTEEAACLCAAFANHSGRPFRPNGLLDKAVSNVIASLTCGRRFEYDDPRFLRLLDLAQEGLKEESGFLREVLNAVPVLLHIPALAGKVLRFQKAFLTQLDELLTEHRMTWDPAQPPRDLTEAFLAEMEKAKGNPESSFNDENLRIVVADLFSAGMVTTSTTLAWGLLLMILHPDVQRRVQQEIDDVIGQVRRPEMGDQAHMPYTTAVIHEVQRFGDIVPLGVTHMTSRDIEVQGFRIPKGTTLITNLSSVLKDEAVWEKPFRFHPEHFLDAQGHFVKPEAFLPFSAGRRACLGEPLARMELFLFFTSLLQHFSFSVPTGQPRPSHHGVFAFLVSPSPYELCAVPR
# [23] = Antiproliferative activity against human COLO205 cells assessed as cell growth at 10^-8 M after 48 hrs by sulforhodamine B assay; assay type: functional; conditions: COLO 205, 48 h, read-out: Activity
# [24] = Antiproliferative activity against human TK10 cells assessed as cell growth at 10^-4 M after 48 hrs by sulforhodamine B assay; assay type: functional; conditions: TK-10, 48 h, read-out: Activity
# [25] = Antiproliferative activity against human SF539 cells assessed as cell growth at 10^-8 M after 48 hrs by sulforhodamine B assay; assay type: functional; conditions: SF-539, 48 h, read-out: Activity
# [26] = Antiproliferative activity against human SF295 cells assessed as cell growth at 10^-6 M after 48 hrs by sulforhodamine B assay; assay type: functional; conditions: SF-295, 48 h, read-out: Activity
# [27] = Antiproliferative activity against human UO31 cells assessed as growth inhibition after 48 hrs by sulforhodamine B assay; assay type: functional; conditions: UO-31, 48 h; for CC50: read-out: LC50 (the source's name)
# [28] = tested on: NCI-H23; test: Antiproliferative activity against human NCI-H23 cells assessed as cell growth at 10^-8 M after 48 hrs by sulforhodamine B assay; assay type: functional; conditions: NCI-H23, 48 h, read-out: Activity
# [29] = tested on: NCI-H522; test: Antiproliferative activity against human NCI-H522 cells assessed as cell growth at 10^-8 M after 48 hrs by sulforhodamine B assay; assay type: functional; conditions: NCI-H522, 48 h, read-out: Activity
# [30] = tested on: SK-MEL-2; test: Antiproliferative activity against human SK-MEL-2 cells assessed as cell growth at 10^-4 M after 48 hrs by sulforhodamine B assay; assay type: functional; conditions: SK-MEL-2, 48 h, read-out: Activity
# [31] = Antiproliferative activity against human DU145 cells assessed as growth inhibition after 48 hrs by sulforhodamine B assay; assay type: functional; conditions: DU-145, 48 h; for CC50: read-out: LC50 (the source's name)
# [32] = Antiproliferative activity against human HL-60(TB) cells assessed as growth inhibition after 48 hrs by sulforhodamine B assay; assay type: functional; conditions: HL-60, 48 h; for CC50: read-out: LC50 (the source's name)
# [33] = Antiproliferative activity against human Hs 578T cells assessed as cell growth at 10^-7 M after 48 hrs by sulforhodamine B assay; assay type: functional; conditions: read-out: Activity
# [34] = tested on: MDA-MB-435; test: Antiproliferative activity against human MDA-MB-435 cells assessed as cell growth at 10^-6 M after 48 hrs by sulforhodamine B assay; assay type: functional; conditions: MDA-MB-435, 48 h, read-out: Activity
# [35] = tested on: T47D; test: Antiproliferative activity against human T47D cells assessed as growth inhibition after 48 hrs by sulforhodamine B assay; assay type: functional; conditions: for CC50: read-out: LC50 (the source's name)
structure (smiles),measurement,setting,value
CNC(=O)c1cc(Oc2ccc3nc(NC(=O)Nc4cc(C(F)(F)F)cc(C(F)(F)F)c4)sc3c2)ccn1,growth at 100 µM,[1],-80%
same,growth at 100 µM,[2],-89%
same,growth at 1 µM,[3],61%
same,growth at 0.1 µM,[4],102%
same,growth at 1 µM,[5],87%
same,growth at 0.01 µM,[6],111%
same,growth at 100 µM,[7],-75%
same,growth at 1 µM,[8],63%
same,growth at 100 µM,[9],-59%
same,growth at 1 µM,[10],58%
same,growth at 100 µM,[11],-45%
same,growth at 1 µM,[12],52%
same,growth at 0.1 µM,[13],93%
same,growth at 100 µM,[14],-89%
same,growth at 100 µM,[15],-61%
same,growth at 1 µM,[16],71%
same,growth at 0.1 µM,[17],105%
same,GI50,[18],1.42 µM
same,LC50,[18],5.76 µM
same,TGI,[18],2.86 µM
same,growth at 1 µM,[19],73%
same,growth at 1 µM,[20],52%
same,GI50,[21],1.55 µM
same,TGI,[21],3.52 µM
same,CC50,[21],7.97 µM
same,"activity at 5 min, 10 µM",[22],91.5%
same,growth at 0.01 µM,[23],90%
same,growth at 100 µM,[24],-87%
same,growth at 0.01 µM,[25],96%
same,growth at 1 µM,[26],55%
same,GI50,[27],1.26 µM
same,TGI,[27],2.68 µM
same,CC50,[27],5.71 µM
same,growth at 0.01 µM,[28],93%
same,growth at 0.01 µM,[29],95%
same,growth at 100 µM,[30],-75%
same,GI50,[31],1.25 µM
same,TGI,[31],2.98 µM
same,CC50,[31],7.14 µM
same,GI50,[32],1.6 µM
same,TGI,[32],4.17 µM
same,CC50,[32],20.4 µM
same,growth at 0.1 µM,[33],100%
same,growth at 1 µM,[34],52%
same,GI50,[35],0.479 µM
same,TGI,[35],2.3 µM
same,CC50,[35],8.47 µM
CNC(=O)c1cc(Oc2ccc3nc(NC(=O)c4cc(C(F)(F)F)cc(C(F)(F)F)c4)sc3c2)ccn1,growth at 100 µM,[1],-15%
same,growth at 100 µM,[2],-79%
same,growth at 1 µM,[3],100%
same,growth at 0.1 µM,[4],93%
same,growth at 1 µM,[5],97%
same,growth at 0.01 µM,[6],99%
same,growth at 100 µM,[7],-30%
same,growth at 1 µM,[8],96%
same,growth at 100 µM,[9],-67%
same,growth at 1 µM,[10],103%
same,growth at 100 µM,[11],-28%
same,growth at 1 µM,[12],93%
same,growth at 0.1 µM,[13],96%
same,growth at 100 µM,[14],-65%
same,growth at 100 µM,[15],-52%
same,growth at 1 µM,[16],101%
same,growth at 0.1 µM,[17],108%
same,GI50,[18],2.55 µM
same,LC50,[18],45.2 µM
same,TGI,[18],8.07 µM
same,growth at 1 µM,[19],94%
same,growth at 1 µM,[20],87%
same,GI50,[21],4.23 µM
same,TGI,[21],25 µM
same,CC50,[21],> 100 µM
same,"activity at 5 min, 10 µM",[22],82.2%
same,growth at 0.01 µM,[23],99%
same,growth at 100 µM,[24],-58%
same,growth at 0.01 µM,[25],101%
same,growth at 1 µM,[26],83%
same,GI50,[27],2.19 µM
same,TGI,[27],8.95 µM
same,CC50,[27],97 µM
same,growth at 0.01 µM,[28],96%
same,growth at 0.01 µM,[29],90%
same,growth at 100 µM,[30],-53%
same,GI50,[31],3.69 µM
same,TGI,[31],15.9 µM
same,CC50,[31],65 µM
same,GI50,[32],2.49 µM
same,TGI,[32],5.11 µM
same,CC50,[32],> 100 µM
same,growth at 0.1 µM,[33],93%
same,growth at 1 µM,[34],96%
same,GI50,[35],3.04 µM
same,TGI,[35],9.18 µM
same,CC50,[35],> 100 µM
CNC(=O)c1cc(Oc2ccc3nc(NC(=O)Nc4ccc(Cl)c(Cl)c4)sc3c2)ccn1,growth at 100 µM,[1],-30%
same,growth at 100 µM,[2],-24%
same,growth at 1 µM,[3],106%
same,growth at 0.1 µM,[4],87%
same,growth at 1 µM,[5],113%
same,growth at 0.01 µM,[6],102%
same,growth at 100 µM,[7],-44%
same,growth at 1 µM,[8],103%
same,growth at 100 µM,[9],-44%
same,growth at 1 µM,[10],119%
same,growth at 100 µM,[11],-74%
same,growth at 1 µM,[12],100%
same,growth at 0.1 µM,[13],93%
same,growth at 100 µM,[14],-34%
same,growth at 100 µM,[15],6%
same,growth at 1 µM,[16],109%
same,growth at 0.1 µM,[17],101%
same,GI50,[18],2.26 µM
same,LC50,[18],21.5 µM
same,TGI,[18],5.11 µM
same,growth at 1 µM,[19],108%
same,growth at 1 µM,[20],84%
same,"activity at 5 min, 10 µM",[22],96.4%
same,growth at 0.01 µM,[23],102%
same,growth at 100 µM,[24],-14%
same,growth at 0.01 µM,[25],92%
same,growth at 1 µM,[26],79%
same,GI50,[27],2.08 µM
same,TGI,[27],3.96 µM
same,CC50,[27],7.56 µM
same,growth at 0.01 µM,[28],95%
same,growth at 0.01 µM,[29],98%
same,growth at 100 µM,[30],-48%
same,GI50,[31],2.45 µM
same,TGI,[31],6.29 µM
same,CC50,[31],> 100 µM
same,GI50,[32],> 100 µM
same,TGI,[32],> 100 µM
same,CC50,[32],> 100 µM
same,growth at 0.1 µM,[33],108%
same,growth at 1 µM,[34],93%
same,GI50,[35],2.65 µM
same,TGI,[35],6.36 µM
same,CC50,[35],> 100 µM
